Test [1] concerns A549. The test can be described thus: Cytotoxicity against human A549 cells assessed as reduction in cell viability incubated for 24 hrs by MTT assay. The class given is functional, cell-based. To be noted: A549, 24 h.
In test [2] the test system is MCF7. The test can be described thus: Cytotoxicity against human MCF7 cells assessed as reduction in cell viability incubated for 24 hrs by MTT assay. The class given is functional, cell-based. To be noted: MCF7, 24 h. On the technique in general: Tetrazolium dyes change colour on reduction, which living cells bring about.
The next test has as its system HepG2. The test can be described thus: Cytotoxicity against human HepG2 cells assessed as reduction in cell viability incubated for 24 hrs by MTT assay. The conditions noted are these: HepG2, 24 h. The class given is functional, cell-based.
Another test relates to HCT-116. Description: Cytotoxicity against human HCT-116 cells assessed as reduction in cell viability incubated for 24 hrs by MTT assay. In kind it is functional, cell-based. The conditions noted are these: HCT-116, 24 h.
Another test has as its system MDA-MB-231. Description: Cytotoxicity against human MDA-MB-231 cells assessed as reduction in cell viability incubated for 48 hrs by MTT assay. The class given is functional, cell-based. To be noted: MDA-MB-231, 48 h.
The test system of a further test is HT-29. Description: Cytotoxicity against human HT-29 cells assessed as reduction in cell viability incubated for 72 hrs by MTT assay. The class given is functional, cell-based. To be noted: HT-29, 72 h.
Test [3] has as its system A549. The test can be described thus: Cytotoxicity against human A549 cells assessed as reduction in cell viability incubated for 72 hrs by MTT assay. The class given is functional, cell-based. To be noted: A549, 72 h.
Test [4] deals with A549. Description: Antiproliferative activity against human A549 cells assessed as reduction in cell viability by MTT assay. The class given is functional, cell-based.
A further test concerns NCI-H460. The test can be described thus: Antiproliferative activity against human NCI-H460 cells assessed as reduction in cell viability by MTT assay. In kind it is functional, cell-based.
A further test relates to K562. The test can be described thus: Growth inhibition of human K562 cells at 10 uM incubated for 24 hrs by MTT assay. The class given is functional. The conditions noted are these: read-out: GI.
The next test has as its system PC-3. The test can be described thus: Cytotoxicity against human PC-3 cells assessed as reduction in cell growth measured for 48 hrs by MTT assay. In kind it is functional, cell-based. The conditions noted are these: PC-3, 48 h.
Another test relates to DU-145. Description: Cytotoxicity against human DU-145 cells assessed as reduction in cell growth measured for 48 hrs by MTT assay. The conditions noted are these: DU-145, 48 h. The class given is functional, cell-based.
The test system of test [5] is MCF7. The test can be described thus: Cytotoxicity against human MCF7 cells assessed as reduction in cell viability by MTT assay. The class given is functional, cell-based.
The next test has as its system T47D. The test can be described thus: Growth inhibition of human T47D cells. In kind it is functional.
The test system of test [6] is A549. The test can be described thus: Growth inhibition of human A549 cells. The class given is functional.
Another test relates to HeLa. Description: Growth inhibition of human HeLa cells. In kind it is functional.
The subject of the next test is SW1573. Description: Growth inhibition of human SW1573 cells. The class given is functional.
Another test relates to WiDr. The test can be described thus: Growth inhibition of human WiDr cells. The class given is functional.
The subject of another test is HBL-100. The test can be described thus: Growth inhibition of human HBL-100 cells. In kind it is functional.
A further test relates to B16-F10. The test can be described thus: Cytotoxicity against mouse B16-F10 cells assessed as reduction in cell viability incubated for 48 hrs by MTT assay. The conditions noted are these: B16-F10, 48 h. The class given is functional, cell-based.

In brackets after ≈: the same amount, converted by molar mass. *1 amine or outer side, *2 acyl side, *3 side chain or, on linkers, in order; H or OH if unused. Where a SMILES comes first, the peptide text is derived from it. Bridges are numbered along the chain shown (N, C = ends). Roman numbers before positions name the chains, in order. [ ]: non-standard residue; d: D form. Actinocin(1to9) = Cc1c2oc3c(C)ccc(C(=O)[*:2])c3nc-2c(C(=O)[*:1])c(N)c1=O; NMeV = CN[C@H](C(=O)O)C(C)C; Sar = CNCC(=O)O

In the case of `N#CC1=C(N)Oc2c(cc(Cl)c3cccnc23)C1c1cccc(Cl)c1Cl` (stereo unspecified), the IC50 (usually the point on the concentration scale where inhibition reaches its midpoint) worked out at 15.6 µg/mL (≈ 38.7 µM) in the test with A549 [1], 2.47 µg/mL (≈ 6.13 µM) with MCF7 [2], 1.48 µg/mL (≈ 3.68 µM) in the test with HepG2 and 7.94 µg/mL (≈ 19.7 µM) in the test with HCT-116.
Turning to `COc1ncccc1-c1cc(-c2cn(Cc3ccccc3F)nn2)cc2ccc(C)nc12`, the IC50 with MDA-MB-231 amounted to 19.8 µM.
Consider `N#CC1=C(N)Oc2c(ccc3cccnc23)C1c1cccc(Cl)c1` (stereo unspecified), for which the IC50 came out at 1.23 µg/mL (≈ 3.69 µM) in the test on A549 [1], 1.42 µg/mL (≈ 4.25 µM) in the test on MCF7 [2], 1.87 µg/mL (≈ 5.6 µM) in the test with HepG2 and 1.35 µg/mL (≈ 4.04 µM) in the test with HCT-116.
For `N#CC1=C(N)Oc2c(cc(Cl)c3cccnc23)C1c1cccc(Cl)c1` (stereo unspecified), in that order: 2.67 µg/mL (≈ 7.25 µM), 0.9 µg/mL (≈ 2.44 µM), 0.7 µg/mL (≈ 1.9 µM) and 3.04 µg/mL (≈ 8.26 µM).
For `COc1cc(/C=C2\OCc3nc4ccccc4c(C)c3C2=O)cc(OC)c1OC`, the IC50 came out at 6.69 µg/mL (≈ 17.1 µM) in the test with HT-29 and 3.68 µg/mL (≈ 9.4 µM) in the test with A549 [3].
With `COc1ccc(Nc2nc3ccccc3c(Nc3ccc(OC)cc3)c2[N+](=O)[O-])cc1`, the results for the IC50 in the test with A549 [4] and with NCI-H460 were 11.2 µM and 7.1 µM, respectively.
Take `COc1ccc(-c2cn3c4c(cccc24)CCC3)cc1`: in the test with K562, the inhibition of growth at 10 µM turned out to be 66%.
For `COc1cc(/C=C2\OCc3nc4ccccc4c(-c4ccccc4)c3C2=O)cc(OC)c1OC`, the IC50 was determined as 7.69 µg/mL (≈ 17 µM) in the test on HT-29 and 4.82 µg/mL (≈ 10.6 µM) with A549 [3].
Take `O=C1N(c2ccccc2S)c2[nH]c(=O)[nH]c(=O)c2C12c1ccccc1Nc1c2[nH]c(=O)[nH]c1=O` (stereo unspecified): the IC50 in the test with PC-3 came out at 18.4 µM; with DU-145, 17.7 µM.
Take `COC(=O)c1c(C(F)(F)F)nc2c(c1-c1ccc(S(=O)(=O)c3ccccc3)cc1)C(=O)CC(C)(C)C2`: in the test on MCF7 [5], the IC50 is 2 nM.
`N#CC1=C(N)Oc2c(cc(Cl)c3cccnc23)C1c1ccc(Cl)cc1Cl` (stereo unspecified): the IC50 with A549 [1] is 1.79 µg/mL (≈ 4.45 µM); in the test on MCF7 [2], 1.18 µg/mL (≈ 2.93 µM); in the test on HepG2, 0.87 µg/mL (≈ 2.16 µM); with HCT-116 it was 3.01 µg/mL (≈ 7.48 µM).
In the case of `COc1cc2nccc(Oc3ccc(NC(=O)C4(C(=O)Nc5ccc(F)cc5)CC4)cc3)c2cc1OC` [CABOZANTINIB], the GI50 (usually the concentration that inhibits growth by half) with T47D is 16 µM; in the test on A549 [6], 9.5 µM; with HeLa it was 11 µM; in the test on SW1573 it was 6 µM; in the test on WiDr, 14 µM; in the test on HBL-100, 17 µM.
In the case of `COc1cc2c(Oc3ccc4[nH]c(C)cc4c3F)ccnc2cc1OCC1(N)CC1` [CATEQUENTINIB], the IC50 with MDA-MB-231 came to 17 µM.
Regarding `Cc1c2oc3c(C)ccc(C(=O)N[C@@H]4C(=O)N[C@H](C(C)C)C(=O)N5CCC[C@H]5C(=O)N(C)CC(=O)N(C)[C@@H](C(C)C)C(=O)O[C@@H]4C)c3nc-2c(C(=O)N[C@@H]2C(=O)N[C@H](C(C)C)C(=O)N3CCC[C@H]3C(=O)N(C)CC(=O)N(C)[C@@H](C(C)C)C(=O)O[C@@H]2C)c(N)c1=O` [DACTINOMYCIN] (I: T[dV]P[Sar][NMeV] / II: T[dV]P[Sar][NMeV]; ester I:1-I:C, II:1-II:C; linker I:N-II:N via Actinocin(1to9)), in the test with B16-F10, the IC50 turned out to be 13.4 µM.
For `COc1cc2nccc(Oc3ccc(NC(=O)NC4CC4)c(Cl)c3)c2cc1C(N)=O` [LENVATINIB], the GI50 with T47D is 10 µM; in the test with A549 [6], 12 µM; in the test on HeLa, 4 µM; in the test on SW1573 it was 8 µM; with WiDr, 19 µM; in the test on HBL-100, 10 µM.
In the case of `CNC(=O)c1cccc2cc(Oc3ccnc4cc(OCC5(N)CC5)c(OC)cc34)ccc12` [LUCITANIB], the IC50 in the test with B16-F10 is 16.3 µM.
In the test with HBL-100, `CCOc1cc2ncc(C#N)c(Nc3ccc(OCc4ccccn4)c(Cl)c3)c2cc1NC(=O)/C=C/CN(C)C` [NERATINIB] showed a GI50 of 1.6 µM. That is a single-digit micromolar value.
As for `CCOc1cc2ncc(C#N)c(Nc3ccc(F)c(Cl)c3)c2cc1NC(=O)/C=C/CN(C)C` [PELITINIB], the GI50 in the test on T47D amounted to 16 µM; with A549 [6] it was 7.7 µM; in the test on HeLa it was 8.3 µM; in the test with SW1573 it was 20 µM; in the test on WiDr, 12 µM; in the test on HBL-100, 19 µM.
For `COC1=C(N)C(=O)c2nc(-c3nc(C(=O)O)c(C)c(-c4ccc(OC)c(OC)c4O)c3N)ccc2C1=O` [STREPTONIGRIN], in the test on MDA-MB-231, the IC50 worked out at 30.5 µM.
As for `COc1cc2nccc(Oc3ccc(NC(=O)Nc4cc(C)on4)c(Cl)c3)c2cc1OC` [TIVOZANIB], the IC50 in the test on B16-F10 was 18.8 µM.

Source of the values: ChEMBL document CHEMBL5608170, “An insight into sustainable and green chemistry approaches for the synthesis of quinoline derivatives as anticancer agents” (Eur J Med Chem, 2024).
